Data taken from PubChem BioAssay AID2060512 (Molecular Pharmacology Branch, DTP, NCI, 2025).

System: 186277-243-T-J2-PDC complex spheroid viability
Assay: Anticancer human tumor 186277-243-T-J2-PDC patient-derived colon adenocarcinoma cell line growth inhibition [GQUAD]
Conditions: for IC50: curve of first compound; for viability, T/C: stronger effect = lower value
How it was run: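 Viability of tumor cells grown as complex spheroids with endothelial and stromal cells, exposed to drug combinations. Top concentration at or near clinical Cmax (else 10 microM), diluted in half-log increments.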

[1] = second compound 0.0316 µM, first compound 0.0316 µM
[2] = second compound 0.0316 µM, first compound 0.1 µM
[3] = second compound 0.0316 µM, first compound 0.316 µM
[4] = second compound 0.0316 µM, first compound 1 µM
[5] = second compound 0.0316 µM, first compound 3.16 µM
[6] = second compound 0.0316 µM, first compound 10 µM
[7] = second compound 0.1 µM, first compound 0.0316 µM
[8] = second compound 0.1 µM, first compound 0.1 µM
[9] = second compound 0.1 µM, first compound 0.316 µM
[10] = second compound 0.1 µM, first compound 1 µM
[11] = second compound 0.1 µM, first compound 3.16 µM
[12] = second compound 0.1 µM, first compound 10 µM
[13] = second compound 0.316 µM, first compound 0.0316 µM
[14] = second compound 0.316 µM, first compound 0.1 µM
[15] = second compound 0.316 µM, first compound 0.316 µM
[16] = second compound 0.316 µM, first compound 1 µM
[17] = second compound 0.316 µM, first compound 3.16 µM
[18] = second compound 0.316 µM, first compound 10 µM
[19] = second compound 1 µM, first compound 0.0316 µM
[20] = second compound 1 µM, first compound 0.1 µM
[21] = second compound 1 µM, first compound 0.316 µM
[22] = second compound 1 µM, first compound 1 µM
[23] = second compound 1 µM, first compound 3.16 µM
[24] = second compound 1 µM, first compound 10 µM
[25] = second compound 3.16 µM, first compound 0.0316 µM
[26] = second compound 3.16 µM, first compound 0.1 µM
[27] = second compound 3.16 µM, first compound 0.316 µM
[28] = second compound 3.16 µM, first compound 1 µM
[29] = second compound 3.16 µM, first compound 3.16 µM
[30] = second compound 3.16 µM, first compound 10 µM
[31] = second compound 10 µM, first compound 0.0316 µM
[32] = second compound 10 µM, first compound 0.1 µM
[33] = second compound 10 µM, first compound 0.316 µM
[34] = second compound 10 µM, first compound 1 µM
[35] = second compound 10 µM, first compound 3.16 µM
[36] = second compound 10 µM, first compound 10 µM
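Throughout, for viability, T/C: 100% = DMSO vehicle control viability.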

For `C=CC(=O)N1CCN(c2nc(=O)n(-c3c(C)ccnc3C(C)C)c3nc(-c4c(O)cccc4F)c(F)cc23)C(C)C1` (stereo not drawn) + Cc1[nH]c2ccc(F)cc2c1-c1nc2c3cccnc3c3ncccc3c2[nH]1, the IC50 (second compound 0.0316 µM) was over 10 µM, the IC50 (second compound 0.1 µM) was over 10 µM and the IC50 (second compound 0.316 µM) was over 10 µM. The IC50 (second compound 1 µM) was over 10 µM, the IC50 (second compound 3.16 µM) was over 10 µM and the IC50 (second compound 10 µM) was over 10 µM. For the same compound, the viability, T/C [1] was 92.4%, the viability, T/C [2] was 87.1% and the viability, T/C [3] was 92.5%. For the same compound, the viability, T/C [4] was 85.2%, the viability, T/C [5] was 107% and the viability, T/C [6] was 94.9%. The viability, T/C [7] was 95.7%, the viability, T/C [8] was 97% and the viability, T/C [9] was 101%. For the same compound, the viability, T/C [10] was 78.5%, the viability, T/C [11] was 113% and the viability, T/C [12] was 92.8%. For the same compound, the viability, T/C [13] was 98.9%, the viability, T/C [14] was 110% and the viability, T/C [15] was 89.3%. For the same compound, the viability, T/C [16] was 91.3%, the viability, T/C [17] was 97.2% and the viability, T/C [18] was 88.7%. The viability, T/C [19] was 98.1%, the viability, T/C [20] was 88.4% and the viability, T/C [21] was 107%. It also gave a viability, T/C [22] of 87.6%, a viability, T/C [23] of 111% and a viability, T/C [24] of 96.3%. For the same compound, the viability, T/C [25] was 84%, the viability, T/C [26] was 96.2% and the viability, T/C [27] was 92%. The viability, T/C [28] was 96%, the viability, T/C [29] was 108% and the viability, T/C [30] was 96%. It also gave a viability, T/C [31] of 94%, a viability, T/C [32] of 99.7% and a viability, T/C [33] of 99.1%. It also gave a viability, T/C [34] of 109%, a viability, T/C [35] of 102% and a viability, T/C [36] of 80.8%.

Work on `CC(C)n1c(=O)n(C)c2cnc3cc(F)c(-c4ccc(OCCCN5CCCCC5)nc4)cc3c21` + Cc1[nH]c2ccc(F)cc2c1-c1nc2c3cccnc3c3ncccc3c2[nH]1 yielded an IC50 (second compound 0.0316 µM) of over 10 µM, an IC50 (second compound 0.1 µM) of over 10 µM and an IC50 (second compound 0.316 µM) of over 10 µM. The IC50 (second compound 1 µM) was over 10 µM, the IC50 (second compound 3.16 µM) was over 10 µM and the IC50 (second compound 10 µM) was over 10 µM. It also gave a viability, T/C [1] of 102%, a viability, T/C [2] of 94.9% and a viability, T/C [3] of 106%. It also gave a viability, T/C [4] of 95.5%, a viability, T/C [5] of 101% and a viability, T/C [6] of 83.6%. It also gave a viability, T/C [7] of 108%, a viability, T/C [8] of 91.4% and a viability, T/C [9] of 99.6%. For the same compound, the viability, T/C [10] was 104%, the viability, T/C [11] was 93.6% and the viability, T/C [12] was 89.2%. It also gave a viability, T/C [13] of 83.3%, a viability, T/C [14] of 105% and a viability, T/C [15] of 101%. For the same compound, the viability, T/C [16] was 89.5%, the viability, T/C [17] was 113% and the viability, T/C [18] was 98.5%. The viability, T/C [19] was 87.9%, the viability, T/C [20] was 89.8% and the viability, T/C [21] was 104%. The viability, T/C [22] was 102%, the viability, T/C [23] was 100% and the viability, T/C [24] was 97.7%. The viability, T/C [25] was 91.7%, the viability, T/C [26] was 90.2% and the viability, T/C [27] was 105%. The viability, T/C [28] was 103%, the viability, T/C [29] was 103% and the viability, T/C [30] was 96.3%. The viability, T/C [31] was 96%, the viability, T/C [32] was 94.7% and the viability, T/C [33] was 104%. It also gave a viability, T/C [34] of 104%, a viability, T/C [35] of 89% and a viability, T/C [36] of 93.3%.

Work on `Cc1cccc(N(C)C(=O)C2C(O)CCN2c2nc(C)cc(C(F)(F)F)c2C#N)c1` (stereo not drawn) + Cc1[nH]c2ccc(F)cc2c1-c1nc2c3cccnc3c3ncccc3c2[nH]1 yielded an IC50 (second compound 0.0316 µM) of over 10 µM, an IC50 (second compound 0.1 µM) of over 10 µM and an IC50 (second compound 0.316 µM) of over 10 µM. For the same compound, the IC50 (second compound 1 µM) was over 10 µM, the IC50 (second compound 3.16 µM) was over 10 µM and the IC50 (second compound 10 µM) was over 10 µM. It also gave a viability, T/C [1] of 104%, a viability, T/C [2] of 104% and a viability, T/C [3] of 98.2%. The viability, T/C [4] was 95.8%, the viability, T/C [5] was 88.7% and the viability, T/C [6] was 106%. For the same compound, the viability, T/C [7] was 104%, the viability, T/C [8] was 97.1% and the viability, T/C [9] was 100%. It also gave a viability, T/C [10] of 92.6%, a viability, T/C [11] of 95.5% and a viability, T/C [12] of 96.3%. The viability, T/C [13] was 92.6%, the viability, T/C [14] was 105% and the viability, T/C [15] was 99.8%. It also gave a viability, T/C [16] of 98%, a viability, T/C [17] of 105% and a viability, T/C [18] of 104%. For the same compound, the viability, T/C [19] was 128%, the viability, T/C [20] was 85.8% and the viability, T/C [21] was 98.2%. It also gave a viability, T/C [22] of 98.3%, a viability, T/C [23] of 97% and a viability, T/C [24] of 108%. It also gave a viability, T/C [25] of 127%, a viability, T/C [26] of 89.3% and a viability, T/C [27] of 98.2%. It also gave a viability, T/C [28] of 105%, a viability, T/C [29] of 99.9% and a viability, T/C [30] of 113%. It also gave a viability, T/C [31] of 90.9%, a viability, T/C [32] of 101% and a viability, T/C [33] of 109%. For the same compound, the viability, T/C [34] was 92.2%, the viability, T/C [35] was 98.8% and the viability, T/C [36] was 99.9%.

Work on `O=C(c1cc(Cc2n[nH]c(=O)c3ccccc23)ccc1F)N1CCN(C(=O)C2CC2)CC1` + Cc1[nH]c2ccc(F)cc2c1-c1nc2c3cccnc3c3ncccc3c2[nH]1 yielded an IC50 (second compound 0.0316 µM) of over 10 µM, an IC50 (second compound 0.1 µM) of over 10 µM and an IC50 (second compound 0.316 µM) of over 10 µM. It also gave an IC50 (second compound 1 µM) of over 10 µM, an IC50 (second compound 3.16 µM) of over 10 µM and an IC50 (second compound 10 µM) of over 10 µM. It also gave a viability, T/C [1] of 110%, a viability, T/C [2] of 91.6% and a viability, T/C [3] of 103%. The viability, T/C [4] was 90.9%, the viability, T/C [5] was 98.8% and the viability, T/C [6] was 54.9%. For the same compound, the viability, T/C [7] was 93.2%, the viability, T/C [8] was 106% and the viability, T/C [9] was 97%. For the same compound, the viability, T/C [10] was 100%, the viability, T/C [11] was 82.3% and the viability, T/C [12] was 66.2%. The viability, T/C [13] was 98.1%, the viability, T/C [14] was 94.5% and the viability, T/C [15] was 91.3%. For the same compound, the viability, T/C [16] was 92.6%, the viability, T/C [17] was 89.9% and the viability, T/C [18] was 53.8%. It also gave a viability, T/C [19] of 79.3%, a viability, T/C [20] of 99.4% and a viability, T/C [21] of 97.4%. It also gave a viability, T/C [22] of 86%, a viability, T/C [23] of 89.2% and a viability, T/C [24] of 62.1%. The viability, T/C [25] was 99%, the viability, T/C [26] was 101% and the viability, T/C [27] was 113%. For the same compound, the viability, T/C [28] was 105%, the viability, T/C [29] was 93.1% and the viability, T/C [30] was 68.3%. The viability, T/C [31] was 89%, the viability, T/C [32] was 102% and the viability, T/C [33] was 114%. For the same compound, the viability, T/C [34] was 87.6%, the viability, T/C [35] was 86.5% and the viability, T/C [36] was 59.2%.
